Where a name gives a salt, the structure may show the parent alone. Read-outs that look alike come from different tables or passages of the source.

Type in all cases: biochemical
The target in one test is T1, recombinant human VAP-1 (Homo sapiens, UniProt Q16853).
T1 construct: purchased R&D systems
T1 sequence (Q16853 1-763): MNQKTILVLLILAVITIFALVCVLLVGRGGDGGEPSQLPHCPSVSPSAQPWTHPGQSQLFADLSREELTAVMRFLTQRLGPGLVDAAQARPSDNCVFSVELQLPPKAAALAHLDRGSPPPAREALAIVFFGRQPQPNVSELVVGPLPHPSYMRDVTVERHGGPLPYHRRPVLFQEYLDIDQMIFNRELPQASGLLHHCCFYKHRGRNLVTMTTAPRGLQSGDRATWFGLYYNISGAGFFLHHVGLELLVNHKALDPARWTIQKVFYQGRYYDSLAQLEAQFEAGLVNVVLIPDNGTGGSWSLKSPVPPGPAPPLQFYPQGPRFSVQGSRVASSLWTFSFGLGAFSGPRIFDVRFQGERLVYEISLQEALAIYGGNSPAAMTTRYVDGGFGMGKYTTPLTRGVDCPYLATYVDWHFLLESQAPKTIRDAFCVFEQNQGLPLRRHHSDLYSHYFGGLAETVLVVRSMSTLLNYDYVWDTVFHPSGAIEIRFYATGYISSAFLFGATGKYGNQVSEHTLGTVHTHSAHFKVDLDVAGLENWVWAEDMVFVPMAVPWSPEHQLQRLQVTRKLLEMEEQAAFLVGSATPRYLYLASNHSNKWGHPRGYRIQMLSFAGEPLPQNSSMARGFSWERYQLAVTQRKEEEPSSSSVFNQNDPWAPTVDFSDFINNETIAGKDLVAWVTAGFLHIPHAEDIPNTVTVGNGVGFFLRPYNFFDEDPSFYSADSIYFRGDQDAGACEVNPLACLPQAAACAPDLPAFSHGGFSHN
Description: Activity evaluation on recombinant human VAP-1 (Amplex Red/HRP-coupled hydrogen peroxide assay, benzylamine substrate). The note with it: read-out: Inhibitory Activity (IC50, nM) human VAP-1. The essentials:
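Recombinant human VAP-1 in 50 mM sodium phosphate pH 7.4 preincubated 30 min at 37 °C with compound (8-point 1:3 series, <1% DMSO), then 1 mM benzylamine, 200 uM Amplex Red, 1 U/mL HRP added. H2O2-derived resorufin fluorescence (ex 544/em 590) followed 1–2 h; IC50 from four-parameter fit of rate inhibition.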

The target in test [1] is T2, recombinant human MAO-A (monoamine oxidase-A) (Homo sapiens, UniProt P21397).
T2 construct: purchased Sigma-Aldrich
T2 sequence (P21397 1-527): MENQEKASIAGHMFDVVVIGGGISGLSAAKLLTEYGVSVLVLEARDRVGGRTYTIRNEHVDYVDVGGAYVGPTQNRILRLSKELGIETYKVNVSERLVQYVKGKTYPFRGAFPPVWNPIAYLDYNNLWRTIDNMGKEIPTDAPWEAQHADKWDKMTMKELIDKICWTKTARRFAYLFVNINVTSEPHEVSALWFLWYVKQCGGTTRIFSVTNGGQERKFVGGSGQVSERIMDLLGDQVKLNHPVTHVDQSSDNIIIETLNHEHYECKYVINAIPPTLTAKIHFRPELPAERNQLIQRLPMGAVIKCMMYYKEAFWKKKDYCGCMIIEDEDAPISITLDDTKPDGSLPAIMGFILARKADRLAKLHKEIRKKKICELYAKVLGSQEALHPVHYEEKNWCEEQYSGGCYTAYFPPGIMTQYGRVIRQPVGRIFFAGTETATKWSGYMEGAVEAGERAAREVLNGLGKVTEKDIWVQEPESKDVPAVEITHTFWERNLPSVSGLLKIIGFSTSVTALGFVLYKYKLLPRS
In words: Activity evaluation on recombinant human MAO-A (Amplex Red/HRP-coupled assay, 0.5 mM tyramine substrate). Particulars: read-out: Inhibitory Activity (IC50, nM) MAO-A. The essentials:
(§1)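 Compounds preincubated 30 min at 37 °C with enzyme in 50 mM sodium phosphate pH 7.4 (final DMSO <1%, 8-point 1:3 dilutions); reaction started with 200 uM Amplex Red, 1 U/mL HRP and substrate (MAO-A 0.5 mM tyramine, MAO-B 1 mM benzylamine, DAO 1 mM putrescine). Resorufin fluorescence (ex 544/em 590 nm) followed over 1-2 h; IC50 from four-parameter logistic fit.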

In test [2] the target is T3, recombinant human MAO-B (monoamine oxidase-B) (Homo sapiens, UniProt P27338).
T3 construct: purchased Sigma-Aldrich
T3 sequence (P27338 1-520): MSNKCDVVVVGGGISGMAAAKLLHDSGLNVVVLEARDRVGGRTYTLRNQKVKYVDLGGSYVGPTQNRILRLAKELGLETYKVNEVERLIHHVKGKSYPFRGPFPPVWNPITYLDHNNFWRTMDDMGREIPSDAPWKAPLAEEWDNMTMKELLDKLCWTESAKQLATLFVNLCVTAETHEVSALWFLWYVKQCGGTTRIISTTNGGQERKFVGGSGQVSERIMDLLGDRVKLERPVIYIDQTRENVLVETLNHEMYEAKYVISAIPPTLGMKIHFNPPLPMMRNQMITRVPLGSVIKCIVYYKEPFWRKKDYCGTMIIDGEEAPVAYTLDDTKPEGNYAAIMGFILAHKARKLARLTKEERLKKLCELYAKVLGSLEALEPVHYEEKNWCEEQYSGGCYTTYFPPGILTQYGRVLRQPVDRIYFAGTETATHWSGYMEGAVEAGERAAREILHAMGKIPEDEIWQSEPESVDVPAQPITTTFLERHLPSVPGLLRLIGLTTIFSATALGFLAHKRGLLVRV
Description: Activity evaluation on recombinant human MAO-B (Amplex Red/HRP-coupled assay, 1 mM benzylamine substrate). Particulars: read-out: Inhibitory Activity (IC50, nM) MAO-B. The essentials: as §1

The target of test [3] is T4, recombinant human DAO (diamine oxidase) (Homo sapiens, UniProt P19801).
T4 construct: purchased R&D systems
T4 sequence (P19801 20-751): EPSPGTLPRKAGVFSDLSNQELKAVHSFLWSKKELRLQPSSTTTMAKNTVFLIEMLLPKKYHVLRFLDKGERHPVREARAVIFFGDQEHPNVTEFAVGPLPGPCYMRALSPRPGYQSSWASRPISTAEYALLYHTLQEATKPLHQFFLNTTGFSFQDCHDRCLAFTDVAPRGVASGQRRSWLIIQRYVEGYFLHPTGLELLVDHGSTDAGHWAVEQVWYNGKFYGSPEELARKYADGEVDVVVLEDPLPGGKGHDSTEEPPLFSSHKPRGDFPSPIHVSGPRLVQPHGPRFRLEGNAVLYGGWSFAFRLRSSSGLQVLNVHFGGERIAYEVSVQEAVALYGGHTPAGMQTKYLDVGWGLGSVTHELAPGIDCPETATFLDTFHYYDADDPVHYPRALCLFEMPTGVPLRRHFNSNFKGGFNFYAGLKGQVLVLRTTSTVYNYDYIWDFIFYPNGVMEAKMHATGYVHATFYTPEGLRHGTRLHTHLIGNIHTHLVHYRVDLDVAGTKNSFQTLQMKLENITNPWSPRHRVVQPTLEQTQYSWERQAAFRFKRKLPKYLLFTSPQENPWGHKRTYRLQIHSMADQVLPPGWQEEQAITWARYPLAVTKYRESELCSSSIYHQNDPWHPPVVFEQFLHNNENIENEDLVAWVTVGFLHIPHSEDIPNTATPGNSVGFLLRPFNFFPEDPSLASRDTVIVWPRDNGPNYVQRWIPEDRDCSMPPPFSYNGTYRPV
Description: Activity evaluation on recombinant human DAO (Amplex Red/HRP-coupled assay, 1 mM putrescine substrate). Particulars: read-out: Inhibitory Activity (IC50, nM) DAO. In outline:
as §1

The mark [4] stands for this setting: recombinant human VAP-1, 30 min preincubation at 37° C., 1 mM benzylamine.
The mark [5] stands for this setting: recombinant human VAP-1, benzylamine substrate.

In the case of `Cc1cc(Br)cnc1-n1cnn(CC(CN)=C(F)F)c1=O` [Example 11, 2-[2-(aminomethyl)-3,3-difluoro-allyl]-4-(5-bromo-3-methyl-2-pyridyl)-1,2,4-triazol-3-one Trifluoroacetate], the 50% inhibitory concentration (IC50) (usually the midpoint of a concentration-inhibition curve) at recombinant human VAP-1 (setting [4]) is 1.1 nM; in test [1] (0.5 mM tyramine), above 100000 nM; in test [2] (1 mM benzylamine), 57000 nM; in test [3] (1 mM putrescine), above 100000 nM.
Turning to `Cc1cc(-c2ccc3ocnc3c2)cnc1-n1cnn(CC(CN)=C(F)F)c1=O` [Example 229, 2-[2-(aminomethyl)-3,3-difluoro-allyl]-4-[5-(1,3-benzoxazol-5-yl)-3-methyl-2-pyridyl]-1,2,4-triazol-3-one Trifluoroacetate], the IC50 on recombinant human VAP-1 (setting [5]) is 0.6 nM; in test [1] (0.5 mM tyramine substrate), above 10000 nM; in test [2] (1 mM benzylamine substrate), 4100 nM; in test [3] (1 mM putrescine substrate) it was 97000 nM.
For `NCC(Cn1ncn(Cc2cc3ccc(-c4ccc(C(F)(F)F)nc4)cc3s2)c1=O)=C(F)F` [Example 199, 2-[2-(aminomethyl)-3,3-difluoro-allyl]-4-[[6-[6-(trifluoromethyl)-3-pyridyl]benzothiophen-2-yl]methyl]-1,2,4-triazol-3-one Trifluoroacetate], the IC50 at recombinant human VAP-1 (setting [5]) is 1.7 nM; in test [1] (0.5 mM tyramine substrate), above 100000 nM; in test [2] (1 mM benzylamine substrate) it was 1100 nM; in test [3] (1 mM putrescine substrate), 15000 nM.
On to `Cc1cc(C#Cc2cnc3c(c2)NCCO3)cnc1-n1cnn(CC(CN)=C(F)F)c1=O` [Example 244, 2-[2-(aminomethyl)-3,3-difluoro-allyl]-4-[5-[2-(2,3-dihydro-1H-pyrido[2,3-b][1,4]oxazin-7-yl)ethynyl]-3-methyl-2-pyridyl]-1,2,4-triazol-3-one ditrifluoroacetate], for which the concentration for half-maximal inhibition (IC50) was 0.8 nM at recombinant human VAP-1 (setting [5]), above 100000 nM in test [1] (0.5 mM tyramine substrate), 37000 nM in test [2] (1 mM benzylamine substrate) and 9000 nM in test [3] (1 mM putrescine substrate).
For the molecule `NCC(Cn1ncn(Cc2cc(-c3ccc(C(F)(F)F)nc3)cs2)c1=O)=C(F)F` [Example 148, 2-[2-(aminomethyl)-3,3-difluoro-allyl]-4-[[4-[6-(trifluoromethyl)-3-pyridyl]-2-thienyl]methyl]-1,2,4-triazol-3-one Trifluoroacetate], the half-inhibitory concentration (IC50) on recombinant human VAP-1 (setting [4]) was 0.7 nM; in test [1] (0.5 mM tyramine), above 100000 nM; in test [2] (1 mM benzylamine), 8700 nM; in test [3] (1 mM putrescine), 6300 nM.
Take `CCn1cc(-c2cccc(-c3cnc(-n4cnn(CC(CN)=C(F)F)c4=O)c(C)c3)c2)cn1` [Example 291, 2-[2-(aminomethyl)-3,3-difluoro-allyl]-4-[5-[3-(1-ethylpyrazol-4-yl)phenyl]-3-methyl-2-pyridyl]-1,2,4-triazol-3-one Trifluoroacetate]: the IC50 at recombinant human VAP-1 (setting [5]) was 0.6 nM; in test [1] (0.5 mM tyramine substrate), above 100000 nM; in test [2] (1 mM benzylamine substrate) it was 3450 nM; in test [3] (1 mM putrescine substrate), 6160 nM.
With `CN(C)c1ccc(-c2cnc(-n3cnn(CC(CN)=C(F)F)c3=O)cn2)cn1` [Example 92, 2-[2-(aminomethyl)-3,3-difluoro-allyl]-4-[5-[6-(dimethylamino)-3-pyridyl]pyrazin-2-yl]-1,2,4-triazol-3-one Trifluoroacetate], the half-inhibitory concentration (IC50) at recombinant human VAP-1 (setting [4]) is 0.2 nM; in test [1] (0.5 mM tyramine) it was above 100000 nM; in test [2] (1 mM benzylamine), 6200 nM; in test [3] (1 mM putrescine), 8 nM.
For `CN(C)c1ccc(-c2ccc(-n3cnn(CC(CN)=C(F)F)c3=O)c(F)c2)cn1` [Example 34, 2-[2-(aminomethyl)-3,3-difluoro-allyl]-4-[4-[6-(dimethylamino)-3-pyridyl]-2-fluoro-phenyl]-1,2,4-triazol-3-one Trifluoroacetate] the same measures were 0.3 nM, 27000 nM, 770 nM and 250 nM.
In the case of `NCC(Cn1ncn(Cc2ccc(/C=C/c3cnc4c(c3)NC(=O)CO4)s2)c1=O)=C(F)F` [Example 161, 7-[(E)-2-[5-[[1-[2-(aminomethyl)-3,3-difluoro-allyl]-5-oxo-1,2,4-triazol-4-yl]methyl]-2-thienyl]vinyl]-1H-pyrido[2,3-b][1,4]oxazin-2-one Trifluoroacetate], the 50% inhibitory concentration (IC50) at recombinant human VAP-1 (setting [4]) is 0.2 nM; in test [1] (0.5 mM tyramine) it was above 100000 nM; in test [2] (1 mM benzylamine), above 100000 nM; in test [3] (1 mM putrescine) it was 54000 nM.
With `Cc1cc(-c2cccc(-n3cnn(CC(CN)=C(F)F)c3=O)c2C)cc2c1NC(=O)CC2` [Example 258, 6-[3-[1-[2-(aminomethyl)-3,3-difluoro-allyl]-5-oxo-1,2,4-triazol-4-yl]-2-methyl-phenyl]-8-methyl-3,4-dihydro-1H-quinolin-2-one Trifluoroacetate], the IC50 is 2.5 nM on recombinant human VAP-1 (setting [5]), above 100000 nM in test [1] (0.5 mM tyramine substrate), above 100000 nM in test [2] (1 mM benzylamine substrate) and above 100000 nM in test [3] (1 mM putrescine substrate).
`Cn1cc(C#Cc2cccc(-n3cnn(CC(CN)=C(F)F)c3=O)n2)cn1` [Example 160, 2-[2-(aminomethyl)-3,3-difluoro-allyl]-4-[6-[2-(1-methylpyrazol-4-yl)ethynyl]-2-pyridyl]-1,2,4-triazol-3-one trifluoroacetate]: the half-maximal inhibitory concentration (IC50) at recombinant human VAP-1 (setting [4]) is 1.5 nM; in test [1] (0.5 mM tyramine) it was above 100000 nM; in test [2] (1 mM benzylamine), 15600 nM; in test [3] (1 mM putrescine), 5090 nM.

Source of the values: patent US11168073B2, “3,3-difluoroallylamines or salts thereof and pharmaceutical compositions comprising the same” (YUHAN CORPORATION, priority 2018, dated 2021).
